In ChEMBL document CHEMBL3885881, “DrugMatrix”:

Organism: Rattus norvegicus
Test: DrugMatrix - Regimen: Daily Repeat
Assay type: toxicity, organism-based, Sprague-Dawley
Design: regimen Daily Repeat, gender Male, age 6-8 weeks
Settings: in vivo, po, route oral GAVAGE, vehicle 100 % WATER; for URIC ACID / ALANINE AMINOTRANSFERASE / ALBUMIN / ALKALINE PHOSPHATASE / ASPARTATE AMINOTRANSFERASE / BLOOD UREA NITROGEN / CARBON DIOXIDE / CHLORIDE / CHOLESTEROL / CREATINE PHOSPHOKINASE / CREATININE / GLUCOSE / LACTATE DEHYDROGENASE / LIPASE / PHOSPHORUS / POTASSIUM / SODIUM / TOTAL BILIRUBIN / TOTAL PROTEIN: tissue Plasma; for ABSOLUTE BASOPHIL / ABSOLUTE EOSINOPHIL / ABSOLUTE LYMPHOCYTE / ABSOLUTE MONOCYTE / ABSOLUTE SEGMENTED NEUTROPHIL / BASOPHIL / EOSINOPHIL / ERYTHROCYTE COUNT / HEMATOCRIT / HEMOGLOBIN / LEUKOCYTE COUNT / LYMPHOCYTE / MEAN CORPUSCULAR HEMOGLOBIN / MEAN CORPUSCULAR HEMOGLOBIN CONCENTRATION / MONOCYTE / NEUTROPHIL / NUCLEATED RED BLOOD CELLS / PLATELET COUNT: tissue Blood
[1] = 50 mg/kg, 120 h, dose level Low, time 5 day
[2] = 1750 mg/kg, 72 h, dose level High, time 3 day
[3] = 1750 mg/kg, 120 h, dose level High, time 5 day

C[C@H](CS)C(=O)N1CCC[C@H]1C(=O)O [CAPTOPRIL]
URIC ACID (50 mg/kg, 72 h, dose level Low, time 3 day): 1.37 mg/dL | ABSOLUTE BASOPHIL [1]: 0 CELLS/uL | ABSOLUTE EOSINOPHIL [1]: 130 CELLS/uL | ABSOLUTE LYMPHOCYTE [1]: 12459.67 CELLS/uL | ABSOLUTE MONOCYTE [1]: 96.33 CELLS/uL | ABSOLUTE SEGMENTED NEUTROPHIL [1]: 1180.67 CELLS/uL | BASOPHIL [1]: 0% | EOSINOPHIL [1]: 1% | ERYTHROCYTE COUNT [1]: 5.51 x10E6/uL | HEMATOCRIT [1]: 34.87% | HEMOGLOBIN [1]: 14.1 G/DL | LEUKOCYTE COUNT [1]: 13.87 x10E3/uL | LYMPHOCYTE [1]: 90% | MEAN CORPUSCULAR HEMOGLOBIN [1]: 25.63 pg | MEAN CORPUSCULAR HEMOGLOBIN CONCENTRATION [1]: 40.43 G/DL | MONOCYTE [1]: 0.67% | NEUTROPHIL [1]: 8.33% | NUCLEATED RED BLOOD CELLS [1]: 0.33 /100WBC | PLATELET COUNT [1]: 1341.67 x10E3/uL | ALANINE AMINOTRANSFERASE [1]: 46.33 u/L | ALBUMIN [1]: 4.37 G/DL | ALKALINE PHOSPHATASE [1]: 377.67 u/L | ASPARTATE AMINOTRANSFERASE [1]: 83.33 u/L | BLOOD UREA NITROGEN [1]: 16.67 mg/dL | CARBON DIOXIDE [1]: 30.67 mmol/L | CHLORIDE [1]: 100.33 MEQ/L | CHOLESTEROL [1]: 79.67 mg/dL | CREATINE PHOSPHOKINASE [1]: 326.33 u/L | CREATININE [1]: 0.2 mg/dL | GLUCOSE [1]: 140.67 mg/dL | LACTATE DEHYDROGENASE [1]: 506 u/L | LIPASE [1]: 12.67 u/L | PHOSPHORUS [1]: 10.43 mg/dL | POTASSIUM [1]: 6.71 MEQ/L | SODIUM [1]: 141.93 MEQ/L | TOTAL BILIRUBIN [1]: 0.2 mg/dL | TOTAL PROTEIN [1]: 6.37 G/DL | URIC ACID [1]: 1.4 mg/dL | ABSOLUTE BASOPHIL [2]: 0 CELLS/uL | ABSOLUTE EOSINOPHIL [2]: 0 CELLS/uL | ABSOLUTE LYMPHOCYTE [2]: 14323.33 CELLS/uL | ABSOLUTE MONOCYTE [2]: 220.67 CELLS/uL | ABSOLUTE SEGMENTED NEUTROPHIL [2]: 1556 CELLS/uL | BASOPHIL [2]: 0% | EOSINOPHIL [2]: 0% | ERYTHROCYTE COUNT [2]: 5.51 x10E6/uL | HEMATOCRIT [2]: 34.3% | HEMOGLOBIN [2]: 13.6 G/DL | LEUKOCYTE COUNT [2]: 16.1 x10E3/uL | LYMPHOCYTE [2]: 89% | MEAN CORPUSCULAR HEMOGLOBIN [2]: 24.73 pg | MEAN CORPUSCULAR HEMOGLOBIN CONCENTRATION [2]: 39.67 G/DL | MONOCYTE [2]: 1.33% | NEUTROPHIL [2]: 9.67% | NUCLEATED RED BLOOD CELLS [2]: 0.67 /100WBC | PLATELET COUNT [2]: 1393 x10E3/uL | ALANINE AMINOTRANSFERASE [2]: 54.67 u/L | ALBUMIN [2]: 4.07 G/DL | ALKALINE PHOSPHATASE [2]: 365.33 u/L | ASPARTATE AMINOTRANSFERASE [2]: 87 u/L | BLOOD UREA NITROGEN [2]: 25.67 mg/dL | CARBON DIOXIDE [2]: 24 mmol/L | CHLORIDE [2]: 100.67 MEQ/L | CHOLESTEROL [2]: 71.67 mg/dL | CREATINE PHOSPHOKINASE [2]: 349.33 u/L | CREATININE [2]: 0.16 mg/dL | GLUCOSE [2]: 152.33 mg/dL | LACTATE DEHYDROGENASE [2]: 356 u/L | LIPASE [2]: 10.33 u/L | PHOSPHORUS [2]: 11.53 mg/dL | SODIUM [2]: 139.9 MEQ/L | TOTAL BILIRUBIN [2]: 0.2 mg/dL | TOTAL PROTEIN [2]: 5.73 G/DL | URIC ACID [2]: 1.27 mg/dL | ABSOLUTE BASOPHIL [3]: 0 CELLS/uL | ABSOLUTE EOSINOPHIL [3]: 0 CELLS/uL | ABSOLUTE LYMPHOCYTE [3]: 12668 CELLS/uL | ABSOLUTE MONOCYTE [3]: 119.33 CELLS/uL | ABSOLUTE SEGMENTED NEUTROPHIL [3]: 946 CELLS/uL | BASOPHIL [3]: 0% | EOSINOPHIL [3]: 0% | ERYTHROCYTE COUNT [3]: 5.54 x10E6/uL | HEMATOCRIT [3]: 34.7% | HEMOGLOBIN [3]: 13.83 G/DL | LEUKOCYTE COUNT [3]: 13.73 x10E3/uL | LYMPHOCYTE [3]: 92.33% | MEAN CORPUSCULAR HEMOGLOBIN [3]: 25.03 pg | MEAN CORPUSCULAR HEMOGLOBIN CONCENTRATION [3]: 39.9 G/DL | MONOCYTE [3]: 1% | NEUTROPHIL [3]: 6.67% | NUCLEATED RED BLOOD CELLS [3]: 0 /100WBC | PLATELET COUNT [3]: 1353.67 x10E3/uL | ALANINE AMINOTRANSFERASE [3]: 53.67 u/L | ALBUMIN [3]: 4.13 G/DL | ALKALINE PHOSPHATASE [3]: 415 u/L | ASPARTATE AMINOTRANSFERASE [3]: 102 u/L | BLOOD UREA NITROGEN [3]: 39.33 mg/dL | CARBON DIOXIDE [3]: 24.33 mmol/L | CHLORIDE [3]: 102.33 MEQ/L | CHOLESTEROL [3]: 70.33 mg/dL | CREATINE PHOSPHOKINASE [3]: 594.67 u/L | CREATININE [3]: 0.33 mg/dL | GLUCOSE [3]: 145.33 mg/dL | LACTATE DEHYDROGENASE [3]: 1114.33 u/L | LIPASE [3]: 11 u/L | PHOSPHORUS [3]: 10.47 mg/dL | POTASSIUM [3]: 6.84 MEQ/L | SODIUM [3]: 141.27 MEQ/L | TOTAL BILIRUBIN [3]: 0.23 mg/dL | TOTAL PROTEIN [3]: 6.03 G/DL | URIC ACID [3]: 1.87 mg/dL
